Here are results for five molecules from ChEMBL document CHEMBL1921748, “Renin inhibitors for the treatment of hypertension: design and optimization of a novel series of spirocyclic piperidines” (Bioorg Med Chem Lett, 2011).

Data set [1] is described as follows: Half life in Sprague-Dawley rat at 0.3 mg/kg, po. The data set is classed as ADME, organism-based. The following applies: in vivo. The arrangement: dose 0.3 mg/kg, route oral.
Data set [2] is described as follows: Clearance in Sprague-Dawley rat at 0.3 mg/kg, po. The data set is classed as ADME, organism-based. The arrangement: dose 0.3 mg/kg, route oral. As to conditions: in vivo.
A short description of data set [3]: Apparent permeability of the compound. The class given is ADME. The following applies: not told.
A short description of data set [4]: Oral bioavailability in Sprague-Dawley rat at 0.3 mg/kg. The data set is classed as ADME, organism-based. As to conditions: in vivo.
The test system of a further data set is Rattus norvegicus. Put plainly: Volume of distribution at steady state in Sprague-Dawley rat at 0.3 mg/kg, po. The data set is classed as ADME, organism-based. Set-up: dose 0.3 mg/kg, route oral. As to conditions: in vivo.
Data set [5] can be described thus: Oral bioavailability in Sprague-Dawley rat at 30 mg/kg. The class given is ADME, organism-based. The following applies: in vivo.
Data set [6] in a line: Oral bioavailability in Sprague-Dawley rat at 3 mg/kg. The data set is classed as ADME, organism-based. The following applies: in vivo.
Data set [7] is described as follows: Metabolic stability in Sprague-Dawley rat hepatocytes assessed as compound remaining at 10 uM after 2 hrs. The data set is classed as ADME, cell-based, Hepatocyte. As to conditions: read-out: Stability.
Data set [8] can be described thus: Metabolic stability in rat liver microsomes assessed as compound remaining at 1 uM after 30 mins in presence of NADPH. The class given is ADME, Microsome. As to conditions: read-out: Stability. On the technique in general: Microsomes from liver hold many membrane-bound enzymes, among them those of drug oxidation.
The nature of data set [9]: Metabolic stability in human liver microsomes assessed as compound remaining at 1 uM after 30 mins in presence of NADPH. The data set is classed as ADME, Microsome. As to conditions: read-out: Stability.
The nature of the next data set: in vitro. The following applies: human, liver microsomes.
Data set [10] is described as follows: Metabolic stability in rhesus monkey liver microsomes assessed as compound remaining at 1 uM after 30 mins in presence of NADPH. The following applies: read-out: Stability. The class given is ADME, Macaca mulatta, Microsome.
The nature of data set [11]: Metabolic stability in dog liver microsomes assessed as compound remaining at 1 uM after 30 mins in presence of NADPH. The following applies: read-out: Stability. The data set is classed as ADME, Canis lupus familiaris, Microsome.
A short description of data set [12]: Clearance in Beagle dog at 3 mg/kg, po and 1 mg/kg, iv. The following applies: in vivo. The class given is ADME, organism-based, Canis lupus familiaris.
A short description of data set [13]: Volume of distribution at steady state in rhesus monkey at 3 mg/kg, po and 1 mg/kg, iv. The class given is ADME, organism-based, Macaca mulatta. As to conditions: in vivo, read-out: Vdss.
A short description of data set [14]: Half life in rhesus monkey at 3 mg/kg, po and 1 mg/kg, iv. The following applies: in vivo. The class given is ADME, organism-based, Macaca mulatta.
Data set [15] is described as follows: Half life in Beagle dog at 3 mg/kg, po and 1 mg/kg, iv. The class given is ADME, organism-based, Canis lupus familiaris. As to conditions: in vivo.
A short description of data set [16]: Oral bioavailability in Beagle dog at 3 mg/kg. The data set is classed as ADME, organism-based, Canis lupus familiaris. The following applies: in vivo.
Data set [17] is described as follows: Clearance in Sprague-Dawley rat at 3 mg/kg, po and 0.5 mg/kg, iv. The following applies: in vivo. The class given is ADME, organism-based.
The nature of data set [18]: Half life in Sprague-Dawley rat at 3 mg/kg, po and 0.5 mg/kg, iv. The class given is ADME, organism-based. The following applies: in vivo.
Data set [19] can be described thus: Volume of distribution at steady state in Sprague-Dawley rat at 3 mg/kg, po and 0.5 mg/kg, iv. The data set is classed as ADME, organism-based. The following applies: in vivo, read-out: Vdss.
The nature of data set [20]: AUC in Beagle dog at 3 mg/kg, po. The data set is classed as ADME, organism-based, Canis lupus familiaris. Set-up: dose 3 mg/kg, route oral. The following applies: plasma.
Data set [21] in a line: AUC in Sprague-Dawley rat at 3 mg/kg, po. As to conditions: plasma. Set-up: dose 3 mg/kg, route oral. The data set is classed as ADME, organism-based.
Data set [22] can be described thus: Volume of distribution at steady state in Beagle dog at 3 mg/kg, po and 1 mg/kg, iv. The data set is classed as ADME, organism-based, Canis lupus familiaris. The following applies: in vivo, read-out: Vdss.
Data set [23] is described as follows: Clearance in rhesus monkey at 3 mg/kg, po and 1 mg/kg, iv. The data set is classed as ADME, organism-based, Macaca mulatta. As to conditions: in vivo.
Data set [24] is described as follows: AUC in rhesus monkey at 3 mg/kg, po. The class given is ADME, organism-based, Macaca mulatta. Set-up: dose 3 mg/kg, route oral. As to conditions: plasma.
Data set [25] can be described thus: Oral bioavailability in rhesus monkey at 3 mg/kg. The data set is classed as ADME, organism-based, Macaca mulatta. The following applies: in vivo.

In general, half-life refers to the time in which the quantity being followed falls by half. A word on the CL/F: it is the apparent clearance, not corrected for the fraction that reaches the circulation. What is called Papp is a coefficient for how fast a substance crosses the barrier. What is called bioavailability is dose-corrected exposure relative to a reference, in per cent. In [1], `COCCCc1cc(CN(C(=O)[C@H]2CNCC[C@]2(O)c2ccc(F)c(F)c2)C2CC2)cc(OCCOC)c1` had a half-life of 1.5 h. In data set [2], this molecule registered a CL/F of 36 mL/min/kg. Also, in data set [3], the apparent permeability (Papp) worked out at 21.5 ×10⁻⁶ cm/s. In addition, the bioavailability worked out at 17% in data set [4], 18% in [5] and 29% in data set [6]. This molecule came in with a Vdss in the data set with Rattus norvegicus of 5 L/kg.

As to `Cc1cccc(CN(C(=O)[C@H]2CNCC[C@@]23OCc2cc(F)c(F)cc23)C2CC2)c1C`, the remaining at 2 h, 10 µM in data set [7] was 8%. Besides, the results for the remaining at 0.5 h, 1 µM in data set [8] and in data set [9] were 0% and 1%, respectively.

As for `O=C([C@H]1CNCC[C@@]12OCc1cc(F)c(F)cc12)N(Cc1cccc(C(F)(F)F)c1Cl)C1CC1`, the remaining at 1 h, 10 µM in the data set “in vitro” was 50%.

As to `COCCCc1cc(CCCN2CCOCC2)c(Cl)c(CN(C(=O)[C@H]2CNCC[C@@]23OCc2cc(F)c(F)cc23)C2CC2)c1`, the remaining at 0.5 h, 1 µM in data set [10] came to 10%; in data set [8], 53%; in data set [11], 43%; in data set [9], 51%.

The AUC is concentration integrated over time. For the molecule `COCCCc1cc(CCCN2CCOCC2)c(Cl)c(CN(C(=O)[C@H]2CNCC[C@@]23OCc2cc(F)c(F)cc23)C2CC2)c1.Cl.Cl.Cl`, the clearance in data set [12] is 73 mL/min/kg; in data set [17], 47 mL/min/kg; in [23], 66 mL/min/kg. Further, the Vd amounted to 45 L/kg in [13], 24 L/kg in data set [19] and 73 L/kg in data set [22]. Besides, the half-life in [14] is 5 h; in data set [15], 10 h; in data set [18], 5.3 h. The bioavailability in data set [16] came to 1%; in [6], 23%; in [25], 1%. The values for the AUC in [20], in [21] and in data set [24] were 0.01 µM·h, 0.37 µM·h and 0.01 µM·h, respectively.
